From patent US20210047297A1, “4-(3-AMINO-6-FLUORO-1H-INDAZOL-5-YL)-1,2,6-TRIMETHYL-1,4-DIHYDROPYRIDINE-3,5-DIC ARBONITRILE COMPOUNDS FOR TREATING HYPERPROLIFERATIVE DISORDERS” (Bayer Pharma Aktiengesellschaft, priority 2018, published 2021)

The compounds below were run against T1, GST-AMPKα2/ß1/γ1 complex (full-length human AMPKα2) (Homo sapiens, UniProt P54619+P54646+Q9Y478) (assay: AMPK high ATP assay (TR-FRET-based AMPK activity inhibition assay)). Settings: ATP concentration of 1 mM; median; read-out: AMPK high ATP assay IC50 [mol/l] (median).
T1 construct: purchased Carna Biosciences 02-114; host or cells: baculovirus expression system
T1 sequence (P54646 whole entry): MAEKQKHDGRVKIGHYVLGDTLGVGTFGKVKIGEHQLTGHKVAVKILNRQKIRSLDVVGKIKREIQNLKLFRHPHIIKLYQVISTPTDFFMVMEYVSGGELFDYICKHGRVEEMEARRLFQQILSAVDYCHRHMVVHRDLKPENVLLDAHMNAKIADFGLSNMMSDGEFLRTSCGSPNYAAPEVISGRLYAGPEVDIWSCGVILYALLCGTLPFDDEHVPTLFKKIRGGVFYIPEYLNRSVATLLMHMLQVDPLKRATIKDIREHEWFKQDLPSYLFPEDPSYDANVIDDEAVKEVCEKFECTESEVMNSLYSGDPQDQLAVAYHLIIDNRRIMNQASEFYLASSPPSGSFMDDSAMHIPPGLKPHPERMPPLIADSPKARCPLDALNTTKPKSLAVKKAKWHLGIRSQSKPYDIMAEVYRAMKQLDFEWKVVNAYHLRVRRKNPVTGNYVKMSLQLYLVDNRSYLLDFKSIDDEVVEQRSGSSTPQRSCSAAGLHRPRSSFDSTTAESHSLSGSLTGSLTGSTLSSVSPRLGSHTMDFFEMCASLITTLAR
T1 sequence (Q9Y478 whole entry partner): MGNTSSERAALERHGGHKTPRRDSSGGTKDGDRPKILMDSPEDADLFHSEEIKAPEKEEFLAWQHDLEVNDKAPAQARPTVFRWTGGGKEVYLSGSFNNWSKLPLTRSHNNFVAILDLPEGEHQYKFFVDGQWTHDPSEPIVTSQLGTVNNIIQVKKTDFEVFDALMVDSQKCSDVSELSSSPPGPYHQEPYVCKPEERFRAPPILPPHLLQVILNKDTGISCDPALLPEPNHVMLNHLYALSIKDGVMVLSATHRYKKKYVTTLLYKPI
T1 sequence (P54619 whole entry partner): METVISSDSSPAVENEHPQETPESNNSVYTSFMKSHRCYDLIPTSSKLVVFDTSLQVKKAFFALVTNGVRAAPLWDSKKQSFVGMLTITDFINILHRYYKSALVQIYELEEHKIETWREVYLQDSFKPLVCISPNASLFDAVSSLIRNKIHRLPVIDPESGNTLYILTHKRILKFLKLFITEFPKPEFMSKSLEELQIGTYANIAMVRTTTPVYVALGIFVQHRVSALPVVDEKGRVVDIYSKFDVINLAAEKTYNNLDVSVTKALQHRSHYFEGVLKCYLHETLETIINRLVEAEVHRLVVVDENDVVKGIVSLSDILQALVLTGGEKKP
Assay type: biochemical
Procedure: AMPK inhibitory activity of compounds of the present invention at an ATP concentration of 1 mM was quantified employing the TR-FRET-based AMPK activity inhibition assay as described in the following paragraphs.
Recombinant fusion protein of N-terminal Glutathion-S-Transferase (GST) and full-length human AMPKα2 [1-552(end) amino acids of accession number NP_006243.2] co-expressed with GST-PRKAB1 [1-270(end) amino acids of accession number NP_006244.2] and PRKAG1 [1-331(end) amino acids of accession number NP_002724.1] using a baculovirus expression system, purified as GST-AMPKα2/ß1/γ1 complex by using glutathione sepharose chromatography, activated with His-tagged CaMKK1 and subsequently purified by using glutathione sepharose chromatography, was purchased from Carna Biosciences (product number 02-114) and used as kinase. As substrate for the kinase reaction biotinylated peptide biotin-Ahx-HMRSAMSFAEPG (C-terminus in amide form) was used which can be purchased e.g. form the company Biosyntan (Berlin-Buch, Germany). For the assay 50 nl of a 100 fold concentrated solution of the test compound in DMSO was pipetted into either a black low volume 384 well microtiter plate or a black 1536 well microtiter plate (both Greiner Bio-One, Frickenhausen, Germany), 2 μl of a solution of GST-AMPKα2/ß1/γ1 in aqueous assay buffer [50 mM Hepes pH 7.5, 10 mM MgCl2, 5 mM β-glycerophosphate, 2.5 mM dithiothreitol (DTT), 0.5 mM EGTA, 0.01% (w/v) bovine γ-globulin (Sigma-Aldrich, #G5009), 0.01% (v/v) Triton X-100 (Sigma-Aldrich, #T9284)] were added and the mixture was incubated for 15 min at 22° C. to allow pre-binding of the test compounds to the enzyme before the start of the kinase reaction. Then the kinase reaction was started by the addition of 3 μl of a solution of adenosine-tri-phosphate (ATP, 1.67 mM=>final conc. in the 5 μl assay volume is 1 mM), adenosine-mono-phosphate (AMP, 3.33 μM=>final conc. in the 5 μl assay volume is 2 μM), and substrate (0.83 μM=>final conc. in the 5 μl assay volume is 0.5 μM) in assay buffer and the resulting mixture was incubated for a reaction time of 30 min at 22° C. The concentration of GST-AMPK α2/ß1/γ1 was adjusted depending of the activity of the enzyme lot and was chosen appropriate to have the assay in the linear range, a typical concentration was 0.08 nM. The reaction was stopped by the addition of 3 μl of a solution of TR-FRET detection reagents (0.2 μM streptavidine-XL665 [Cisbio Bioassays, Codolet, France] and 3.33 nM anti-phosho-Serine antibody [Merck Millipore, “STK antibody”, cat. #35-002] and 3.33 nM anti mouse IgG-Tb cryptate, a Terbium-cryptate labelled anti-mouse IgG antibody [Cisbio Bioassays, Codolet, France] in an aqueous EDTA-solution (166.7 mM EDTA, 0.06 (w/v) bovine serum albumin in 50 mM HEPES pH 7.5).
The resulting mixture was incubated 1 h at 22° C. to allow the formation of complex between the phosphorylated biotinylated peptide and the detection reagents. Subsequently the amount of phosphorylated substrate was evaluated by measurement of the resonance energy transfer from the Tb-cryptate to the streptavidine-XL665. Therefore, the fluorescence emissions at 620 nm and 665 nm after excitation at 350 nm was measured in a TR-FRET reader, e.g. a Pherastar FS (BMG Labtechnologies, Offenburg, Germany) or a Viewlux (Perkin-Elmer). The ratio of the emissions at 665 nm and at […] was taken as the measure for the amount of phosphorylated substrate. The data were normalised (enzyme reaction without inhibitor=0 inhibition, all other assay components but no enzyme=100% inhibition).
For CC1=C(C#N)C(c2cc3c(NC(=O)c4ccc(OCCN5CCCC5)cc4Cl)n[nH]c3c(C)c2F)C(C#N)=C(C)N1C [Example 20, 2-chloro-N-[5-(3,5-dicyano-1,2,6-trimethyl-1,4-dihydropyridin-4-yl)-6-fluoro-7-methyl-1H-indazol-3-yl]-4-[2-(pyrrolidin-1-yl)ethoxy]benzamide], the IC50 was 0.66 nM.
Compound COC(=O)C12C3C4C1C1C2C3C41C(=O)Nc1n[nH]c2c(C)c(F)c(C3C(C#N)=C(C)N(C)C(C)=C3C#N)cc12 (centres unmarked) [Example 22, methyl 4-{[5-(3,5-dicyano-1,2,6-trimethyl-1,4-dihydropyridin-4-yl)-6-fluoro-7-methyl-1H-indazol-3-yl]carbamoyl}cubane-1-carboxylate] has an IC50 of 65.6 nM.
CC1=C(C#N)C(c2cc3c(NC(=O)C45C6C7C4C4C5C6C74C(=O)N4CCC4)n[nH]c3c(C)c2F)C(C#N)=C(C)N1C (centres unmarked) [Example 23, 4-(azetidine-1-carbonyl)-N-[5-(3,5-dicyano-1,2,6-trimethyl-1,4-dihydropyridin-4-yl)-6-fluoro-7-methyl-1H-indazol-3-yl]cubane-1-carboxamide] was tested, and the IC50 was 105 nM.
CC1=C(C#N)C(c2cc3c(NC(=O)C45C6C7C4C4C5C6C74C(=O)N4CCN(C)CC4)n[nH]c3c(C)c2F)C(C#N)=C(C)N1C (centres unmarked) [Example 24, N-[5-(3,5-dicyano-1,2,6-trimethyl-1,4-dihydropyridin-4-yl)-6-fluoro-7-methyl-1H-indazol-3-yl]-4-(4-methylpiperazine-1-carbonyl)cubane-1-carboxamide] showed an IC50 of 59.7 nM.
Work on C=Cc1c(F)c(C2C(C#N)=C(C)N(C)C(C)=C2C#N)cc2c(NC(=O)c3cc(C)nn3CC)n[nH]c12 [Example 25, N-[5-(3,5-dicyano-1,2,6-trimethyl-1,4-dihydropyridin-4-yl)-7-ethenyl-6-fluoro-1H-indazol-3-yl]-1-ethyl-3-methyl-1H-pyrazole-5-carboxamide] yielded an IC50 of 152 nM.
CCc1c(F)c(C2C(C#N)=C(C)N(C)C(C)=C2C#N)cc2c(NC(=O)c3c(F)cccc3F)n[nH]c12 [Example 26, N-[5-(3,5-dicyano-1,2,6-trimethyl-1,4-dihydropyridin-4-yl)-7-ethyl-6-fluoro-1H-indazol-3-yl]-2,6-difluorobenzamide] was tested, and the IC50 was 38.1 nM.
CCc1ccccc1C(=O)Nc1n[nH]c2c(CC)c(F)c(C3C(C#N)=C(C)N(C)C(C)=C3C#N)cc12 [Example 27, N-[5-(3,5-dicyano-1,2,6-trimethyl-1,4-dihydropyridin-4-yl)-7-ethyl-6-fluoro-1H-indazol-3-yl]-2-ethylbenzamide] gave an IC50 of 59.5 nM.
CCc1c(F)c(C2C(C#N)=C(C)N(C)C(C)=C2C#N)cc2c(NC(=O)c3ccnn3C(C)C)n[nH]c12 [Example 28, N-[5-(3,5-dicyano-1,2,6-trimethyl-1,4-dihydropyridin-4-yl)-7-ethyl-6-fluoro-1H-indazol-3-yl]-1-(propan-2-yl)-1H-pyrazole-5-carboxamide] gave an IC50 of 138 nM.
CCc1c(F)c(C2C(C#N)=C(C)N(C)C(C)=C2C#N)cc2c(NC(=O)c3c(Cl)cnn3C)n[nH]c12 [Example 29, 4-chloro-N-[5-(3,5-dicyano-1,2,6-trimethyl-1,4-dihydropyridin-4-yl)-7-ethyl-6-fluoro-1H-indazol-3-yl]-1-methyl-1H-pyrazole-5-carboxamide] gave an IC50 of 122 nM.
Compound CCc1c(F)c(C2C(C#N)=C(C)N(C)C(C)=C2C#N)cc2c(NC(=O)c3cc(C)nn3CC)n[nH]c12 [Example 30, N-[5-(3,5-dicyano-1,2,6-trimethyl-1,4-dihydropyridin-4-yl)-7-ethyl-6-fluoro-1H-indazol-3-yl]-1-ethyl-3-methyl-1H-pyrazole-5-carboxamide] has an IC50 of 68.6 nM.
In the case of CCc1c(F)c(C2C(C#N)=C(C)N(C)C(C)=C2C#N)cc2c(NC(=O)c3ccccc3Cl)n[nH]c12 [Example 31, 2-chloro-N-[5-(3,5-dicyano-1,2,6-trimethyl-1,4-dihydropyridin-4-yl)-7-ethyl-6-fluoro-1H-indazol-3-yl]benzamide], the IC50 is reported as 71.5 nM.
Compound CC1=C(C#N)C(c2cc3c(NC(=O)c4ccccc4Cl)n[nH]c3c(C(F)(F)F)c2F)C(C#N)=C(C)N1C [Example 32, 2-chloro-N-[5-(3,5-dicyano-1,2,6-trimethyl-1,4-dihydropyridin-4-yl)-6-fluoro-7-(trifluoromethyl)-1H-indazol-3-yl]benzamide] has an IC50 of 10.5 nM.
CCn1nc(C)cc1C(=O)Nc1n[nH]c2c(C(F)(F)F)c(F)c(C3C(C#N)=C(C)N(C)C(C)=C3C#N)cc12 [Example 33, N-[5-(3,5-dicyano-1,2,6-trimethyl-1,4-dihydropyridin-4-yl)-6-fluoro-7-(trifluoromethyl)-1H-indazol-3-yl]-1-ethyl-3-methyl-1H-pyrazole-5-carboxamide] showed an IC50 of 25 nM.
CC1=C(C#N)C(c2ccc3[nH]nc(NC(=O)c4ccccc4)c3c2)C(C#N)=C(C)N1 [Reference Example 1, N-[5-(3,5-dicyano-2,6-dimethyl-1,4-dihydropyridin-4-yl)-1H-indazol-3-yl]benzamide, reference compound] gave an IC50 of 279 nM.
